Laboratory results reported in ChEMBL document CHEMBL4304799, “Primaquine homodimers as potential antiplasmodial and anticancer agents” (Bioorg Med Chem Lett, 2019).
Values belong to the compound of their own block, whether it stands above or below them. Active and inactive are the calls of the source. No cut-off for these calls is given here.

Key:
NCI-H460 = assay: Antiproliferative activity against human H460 cells measured after 72 hrs by MTT assay; type: functional, cell-based; conditions: NCI-H460, 72 h
HEK293 = assay: Antiproliferative activity against human HEK293 cells measured after 72 hrs by MTT assay; type: cell-based; conditions: HEK293, 72 h
HCT-116 = assay: Antiproliferative activity against human HCT116 cells measured after 72 hrs by MTT assay; type: functional, cell-based; conditions: HCT-116, 72 h
MCF7 = assay: Antiproliferative activity against human MCF7 cells measured after 72 hrs by MTT assay; type: functional, cell-based; conditions: MCF7, 72 h
Plasmodium berghei [1] = assay: Antiplasmodial activity against liver stage luciferase expressing Plasmodium berghei sporozoites infected in human Huh7 cells preincubated with host cells for 1 hr followed by plasmodium infection; type: functional, organism-based; conditions: Huh-7
[2] = Selectivity index, ratio of IC50 for HEK293 cells to IC50 for human HCT116 cells; type: toxicity; conditions: HEK293 cells versus HCT116 cells, read-out: Ratio IC50
Plasmodium berghei [3] = assay: Antiplasmodial activity against liver stage luciferase expressing Plasmodium berghei sporozoites infected in human Huh7 cells preincubated with host cells for 1 hr followed by plasmodium infection at 1 and 10 uM; type: functional, organism-based
[4] = Selectivity index, ratio of IC50 for HEK293 cells to IC50 for human H460 cells; type: toxicity; conditions: HEK293 cells versus H460 cells, read-out: Ratio IC50
[5] = Selectivity index, ratio of IC50 for HEK293 cells to IC50 for human MCF7 cells; type: toxicity; conditions: HEK293 cells versus MCF7 cells, read-out: Ratio IC50
Plasmodium falciparum [6] = assay: Antiplasmodial activity against asexual chloroquine resistant blood stage Plasmodium falciparum Dd2 measured as HRP2 levels after 3 days by ELISA; type: functional, organism-based; conditions: Dd2, 72 h
Plasmodium falciparum [7] = assay: Antiplasmodial activity against asexual chloroquine sensitive blood stage Plasmodium falciparum 3D7 measured as HRP2 levels after 3 days by ELISA; type: functional, organism-based; conditions: 3D7, 72 h

- IC50 (NCI-H460): 0.003 µM
- IC50 (HCT-116): 0.01 µM
- IC50 (MCF7): 0.01 µM
Structure (SMILES): COc1cccc2c1C(=O)c1c(O)c3c(c(O)c1C2=O)C[C@@](O)(C(=O)CO)C[C@@H]3O[C@H]1C[C@H](N)[C@H](O)[C@H](C)O1 [DOXORUBICIN]
- IC50 (HEK293): 0.018 µM

- IC50 (NCI-H460): 14.1 µM
- IC50 (HCT-116): 9.19 µM
- IC50 (MCF7): 3.14 µM
Structure (SMILES): COc1cc(NC(C)CCCNC(=O)/C=C\C(=O)NCCCC(C)Nc2cc(OC)cc3cccnc23)c2ncccc2c1 (centres undefined)
- IC50 (Plasmodium berghei [1]): 0.358 µM
- selectivity ratio [2]: 1.6 to 31
- Activity (Plasmodium berghei [3]): Active
- IC50 (HEK293): 17.5 µM
- selectivity ratio [4]: 1.6 to 31
- selectivity ratio [5]: 1.6 to 31

Structure (SMILES): COc1cc(NC(C)CCCNC(=O)CCCCCCC(=O)NCCCC(C)Nc2cc(OC)cc3cccnc23)c2ncccc2c1 (centres undefined)
- IC50 (NCI-H460): ≥ 100 µM
- Activity (Plasmodium berghei [3]): Active
- IC50 (Plasmodium falciparum [6]): 12.7 µM
- IC50 (HEK293): ≥ 100 µM
- IC50 (HCT-116): ≥ 100 µM
- IC50 (Plasmodium falciparum [7]): 23.1 µM
- IC50 (MCF7): 1.85 µM

Structure (SMILES): COc1cc(NC(C)CCCNC(=O)CCCC(=O)NCCCC(C)Nc2cc(OC)cc3cccnc23)c2ncccc2c1 (centres undefined)
- IC50 (NCI-H460): 10.3 µM
- selectivity ratio [2]: 1.6 to 31
- Activity (Plasmodium berghei [3]): Active
- IC50 (Plasmodium falciparum [6]): > 27.7 µM
- IC50 (HEK293): 26.4 µM
- IC50 (HCT-116): 16.9 µM
- IC50 (Plasmodium falciparum [7]): 16.5 µM
- selectivity ratio [4]: 1.6 to 31
- selectivity ratio [5]: 1.6 to 31
- IC50 (MCF7): 3.37 µM

- IC50 (NCI-H460): 26.7 µM
- IC50 (HCT-116): 26.1 µM
- IC50 (MCF7): 3.04 µM
Structure (SMILES): COc1cc(NC(C)CCCNC(=O)CCCCCC(=O)NCCCC(C)Nc2cc(OC)cc3cccnc23)c2ncccc2c1 (centres undefined)
- selectivity ratio [2]: 1.6 to 31
- IC50 (HEK293): 94.9 µM
- selectivity ratio [4]: 1.6 to 31
- selectivity ratio [5]: 1.6 to 31

- IC50 (NCI-H460): 1.63 µM
- IC50 (HCT-116): 4.31 µM
- IC50 (MCF7): 2.36 µM
Structure (SMILES): COc1cc(NC(C)CCCNC(=O)/C=C(\C)C(=O)NCCCC(C)Nc2cc(OC)cc3cccnc23)c2ncccc2c1 (centres undefined)
- IC50 (HEK293): 10 µM

Structure (SMILES): COc1cc(NC(C)CCCN)c2ncccc2c1 (centres undefined) [PRIMAQUINE PHOSPHATE]
- IC50 (NCI-H460): 19.8 µM
- Activity (Plasmodium berghei [3]): Active
- IC50 (Plasmodium falciparum [6]): 1.9 µM
- IC50 (HEK293): 11 µM
- IC50 (HCT-116): 14 µM
- IC50 (Plasmodium falciparum [7]): 1.3 µM
- IC50 (MCF7): 8.73 µM

Structure (SMILES): COc1cc(NC(C)CCCNC(=O)CCCCC(=O)NCCCC(C)Nc2cc(OC)cc3cccnc23)c2ncccc2c1 (centres undefined)
- IC50 (NCI-H460): 2.49 µM
- selectivity ratio [2]: 7.3 to 56
- Activity (Plasmodium berghei [3]): Active
- IC50 (Plasmodium falciparum [6]): > 27.7 µM
- IC50 (HEK293): ≥ 100 µM
- IC50 (HCT-116): 13.7 µM
- IC50 (Plasmodium falciparum [7]): > 27.7 µM
- selectivity ratio [4]: 7.3 to 56
- selectivity ratio [5]: 7.3 to 56
- IC50 (MCF7): 1.78 µM

Structure (SMILES): COc1cc(NC(C)CCCNC(=O)/C=C/C(=O)NCCCC(C)Nc2cc(OC)cc3cccnc23)c2ncccc2c1 (centres undefined)
- IC50 (NCI-H460): ≥ 100 µM
- IC50 (Plasmodium berghei [1]): 0.198 µM
- Activity (Plasmodium berghei [3]): Active
- IC50 (Plasmodium falciparum [6]): > 27.7 µM
- IC50 (HEK293): ≥ 100 µM
- IC50 (HCT-116): ≥ 100 µM
- IC50 (Plasmodium falciparum [7]): 14.6 µM
- IC50 (MCF7): 9.3 µM

Structure (SMILES): COc1cc(NC(C)CCCNC(=O)CCC(=O)NCCCC(C)Nc2cc(OC)cc3cccnc23)c2ncccc2c1 (centres undefined)
- IC50 (NCI-H460): 18.5 µM
- IC50 (Plasmodium berghei [1]): 0.726 µM
- Activity (Plasmodium berghei [3]): Active
- IC50 (Plasmodium falciparum [6]): > 27.7 µM
- IC50 (HEK293): 2.25 µM
- IC50 (HCT-116): 11.3 µM
- IC50 (Plasmodium falciparum [7]): 17.2 µM
- IC50 (MCF7): 2.82 µM
